# Measured values taken from patent US11214803B2, “Modulators of YAP1 expression” (Ionis Pharmaceuticals, Inc., priority 2019, dated 2022).
# pIC50: −log10 of the molar value. Strand notation (5' to 3'): a small letter for the sugar, then the base; units joined by * are phosphorothioate-linked, units joined directly phosphodiester-linked; [ ] holds rarer units or linkages, { } end groups; capitals alone tell only the bases. k = constrained ethyl (cEt); [5mC] = 5-methylcytosine; d = 2'-deoxy (DNA)
# How the values were obtained:
# [1] = tested on: SNU449 xenograft tumor; test: Tumor volume in SNU449 xenograft tumor model, alone and in combination with sorafenib (second Example 30); format: in vivo, human; conditions: SNU449 xenograft in mice
# Procedure: Modified oligonucleotides described in the studies above were tested in a hepatocellular carcinoma SNU449 xenograft tumor model. […] A control oligonucleotide 792169, described herein above, was also tested.
# Five million SNU449 cells in 30% matrigel were implanted subcutaneously into the fatpads of female NOD.Cg-Prkdcscid II2rgtmlWjl/SzJ mice (from Jackson Laboratory) at 4-6 weeks of age. 43 days post implantation (when tumors had reached approximately 100 mm^3 in size), groups of eight mice each were administered with 50 mg/kg modified oligonucleotide daily for 10 days (loading dose), following which they were administered with 50 mg/kg modified oligonucleotide four times a week for one week, following which they were dosed with 50 mg/kg modified oligonucleotide thrice weekly until the end of the study. […] Animals were sacrificed, and tumors were collected on day 119 post implantation.
# Tumor volumes were also measured at the indicated days in the table below.
# [2] = tested on: ERK1/2; test: Measurement of ERK activation (pERK/ERK) in SNU449 xenograft model with sorafenib (second Example 30); format: in vivo, human; conditions: SNU449 xenograft in mice, combination therapy compared with sorafenib treatment alone
# Procedure: Five million SNU449 cells in 30% matrigel were implanted subcutaneously into the fatpads of female NOD.Cg-Prkdcscid II2rgtmlWjl/SzJ mice (from Jackson Laboratory) at 4-6 weeks of age. 43 days post implantation (when tumors had reached approximately 100 mm^3 in size), groups of eight mice each were administered with 50 mg/kg modified oligonucleotide daily for 10 days (loading dose), following which they were administered with 50 mg/kg modified oligonucleotide four times a week for one week, following which they were dosed with 50 mg/kg modified oligonucleotide thrice weekly until the end of the study.
# Protein analysis was carried out using standard procedures. […] ERK protein levels were compared to internal control GAPDH. […] The secondary antibody used was donkey anti-rabbit NA934, GE Healthcare. pERK/ERK levels were calculated relative to PBS control to determine % activation of ERK1/2.
# [3] = Cynomolgus monkey tolerability, hematology (Example 34); format: in vivo, cynomolgus monkeys; conditions: cynomolgus monkeys, 35 mg/kg subcutaneously, blood samples day 44
# Procedure: To evaluate any effect of Ionis oligonucleotides in cynomolgus monkeys on hematologic parameters, blood samples of approximately 0.5 mL of blood was collected from each of the available study animals on day 44. The samples were collected in tubes containing K2-EDTA. Samples were analyzed for red blood cell (RBC) count, Hemoglobin (HGB), Hematocrit (HCT), Mean corpuscular volume (MCV), mean corpuscular hemoglobin (MCH), mean corpuscular hemoglobin concentration (MCHC), RBC Distribution Width (RCDW), reticulocyte count (Retic), platelet count (PLT), mean platelet volume (MPV), white blood cells (WBC) count, individual white blood cell counts, such as that of monocytes (MON), neutrophils (NEU), lymphocytes (LYM), eosinophils (EOS), basophils (BAS), and large unstained cells (LUC) using an ADVIA2120i hematology analyzer (Siemens, USA).
# [4] = Cynomolgus monkey tolerability, urine analysis (Example 34); conditions: cynomolgus monkeys, 35 mg/kg subcutaneously, day 44
# Procedure: (§3) Prior to the study, the monkeys were kept in quarantine during which the animals were observed daily for general health. The monkeys were 2-4 years old and weighed 2-4 kg. Eleven groups of 4 randomly assigned male cynomolgus monkeys each were injected subcutaneously with Ionis oligonucleotide or saline in a clock-wise rotation between four different sites on the back. Following loading doses on days 1, 3, 5 and 7, the monkeys were dosed once per week (on days 14, 21, 28, 35, and 42) with 35 mg/kg of Ionis oligonucleotide.
# Food was removed overnight the day before fresh urine collection, but water was supplied. Fresh urine samples for urinalysis and urine chemistry were collected from all animals using a clean cage pan on wet ice (first in the morning) on day 44. Urinalysis/Urine Chemistry parameters creatinine (UCRE), microprotein (UTP), urine microalbumin (UALB), and protein/creatinine (P/C) ratio were measured using a Toshiba 120FR automated chemistry analyzer (Toshiba Co., Japan).
# [5] = Cynomolgus monkey tolerability, kidney and liver function markers (Example 34); conditions: cynomolgus monkeys, 35 mg/kg subcutaneously, blood samples day 44
# Procedure: as §3
# To evaluate the effect of Ionis oligonucleotides on hepatic and kidney function, blood samples were collected from all the study groups on day 44. The monkeys were fasted overnight prior to blood collection. Blood was collected in tubes without anticoagulant for serum separation. The tubes were kept at room temperature for a minimum of 90 minutes and then centrifuged at 3000 rpm for 10 minutes to obtain serum. Levels of various liver function markers were measured using a Toshiba 200FR NEO chemistry analyzer (Toshiba Co., Japan).
# [6] = Cynomolgus monkey tolerability, body and organ weight measurements (Example 34); format: in vivo; conditions: cynomolgus monkeys, 35 mg/kg subcutaneously, loading doses days 1, 3, 5, 7, then once per week
# Procedure: Cynomolgus monkeys were treated with Ionis modified oligonucleotides selected from studies described in the Examples above. Modified oligonucleotide tolerability was evaluated.
# During the study period, the monkeys were observed twice daily for signs of illness or distress. Any animal experiencing more than momentary or slight pain or distress due to the treatment, injury or illness was treated by the veterinary staff with approved analgesics or agents to relieve the pain after consultation with the Study Director. Any animal in poor health or in a possible moribund condition was identified for further monitoring and possible euthanasia. Scheduled euthanasia of the animals was conducted on day 86 approximately 48 hours after the last dose by exsanguination while under deep anesthesia. The protocols described in the Example were approved by the Institutional Animal Care and Use Committee (IACUC).
# To evaluate the effect of Ionis oligonucleotides on the overall health of the animals, body and organ weights were measured. Terminal body weight was measured prior to necropsy.
# [7] = Cynomolgus monkey tolerability, coagulation (Example 34); format: in vivo; conditions: cynomolgus monkeys, 35 mg/kg subcutaneously, blood samples day 44
# Procedure: To evaluate effect of Ionis modified oligonucleotides on coagulation in cynomolgus monkeys, blood samples of approximately 0.9 mL were collected from each of the available study animals on day 44. The samples were collected in tubes containing 3.2% sodium citrate. Coagulation parameters tested include Activated partial thromboplastin time (APTT), prothrombin time (PT) and Figrinogen (FIB).
# [8] = Cynomolgus monkey tolerability, pro-inflammatory proteins analysis, Complement C3 and CRP (Example 34); format: in vivo; conditions: cynomolgus monkeys, 35 mg/kg subcutaneously, day 42 pre-dose and 24 hours post-dose
# Procedure: To evaluate any inflammatory effect of Ionis oligonucleotides in cynomolgus monkeys, blood samples were taken for analysis. The monkeys were fasted overnight prior to blood collection. On day 42 (pre-dose and 24 hours post-dose), approximately 0.8 mL of blood was collected from each animal and put into tubes without anticoagulant for serum separation. […] Complement C3 were measured using a Toshiba 120 FR NEO chemistry analyzer (Toshiba Co., Japan). […] Another marker of inflammation, C-Reactive Protein (CRP) was tested together with the clinical chemistry parameters tested for liver function above.
# [9] = tested on: Yap1 mRNA; test: Dose-dependent inhibition of human Yap1 in A-431 cells (Example 7, 10,000 cells per well, RTS36584); format: cell-based; conditions: free uptake; for Yap1 mRNA, % UTC: A-431 cells 10,000 cells per well, 48 hours
# Method in brief: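 A-431 cells at 10,000 per well received modified oligonucleotides by free uptake at several doses. After about 48 hours, Yap1 mRNA was quantified with primer-probe set RTS36584, normalized to RIBOGREEN total RNA and expressed as % untreated control. IC50 came from linear regression on a log/linear plot.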
# [10] = Tolerability in Balb/c mice, body and organ weights (Example 13); format: in vivo; conditions: male Balb/c mice, 50 mg/kg s.c. twice a week for four weeks (8 treatments), end of study (day 25)
# Procedure: (§1) Groups of male Balb/c mice at 4-6 weeks of age (obtained from Taconic) were injected subcutaneously twice a week for four weeks (for a total of 8 treatments) with 50 mg/kg of modified oligonucleotides. One group of male Balb/c mice was injected with PBS. Mice were euthanized on day 25 post start of treatment (24 hours following the final administration).
# Body weights of Balb/c mice were measured at the end of the study, and the average body weight for each group is presented in the table below. Modified oligonucleotides that caused any changes in organ weights outside the expected range for modified oligonucleotides were excluded from further studies.
# [11] = Tolerability in Balb/c mice, plasma chemistry markers (Example 13); format: in vivo; conditions: male Balb/c mice, 50 mg/kg s.c. twice a week for four weeks (8 treatments), day 25
# Procedure: Balb/c mice were treated with modified oligonucleotides selected from studies described above and evaluated for changes in the levels of various plasma chemistry markers.
# as §1
# [12] = Tolerability in CD-1 mice, plasma chemistry markers (Example 18); format: in vivo; conditions: male CD-1 mice, 50 mg/kg s.c. twice a week (total of 9 treatments), day 34
# Procedure: CD-1 mice were treated with modified oligonucleotides selected from studies described above and evaluated for changes in the levels of various plasma chemistry markers.
# (§2) Groups of four male CD-1 mice at 5-6 weeks of age (obtained from Charles River) were injected subcutaneously twice a week for four weeks (for a total of 9 treatments) with 50 mg/kg of modified oligonucleotides. One group of male CD-1 mice was injected with PBS. Mice were euthanized on day 34 post start of treatment (24 hours following the final administration).
# [13] = Tolerability in CD-1 mice, body and organ weights (Example 18); format: in vivo; conditions: male CD-1 mice, 50 mg/kg s.c. twice a week (total of 9 treatments), end of study (day 34)
# Procedure: as §2
# Body weights of CD-1 mice were measured at the end of the study, and the average body weight for each group is presented in the table below. Modified oligonucleotides that caused any changes in organ weights outside the expected range for modified oligonucleotides were excluded from further studies.
# [14] = Tolerability in Sprague-Dawley rats, plasma chemistry markers (Example 20); format: in vivo; conditions: male Sprague-Dawley rats, 50 mg/kg s.c. weekly for 6 weeks (7 doses), 48 hours after last dose
# Procedure: Sprague-Dawley rats are a multipurpose model used for safety and efficacy evaluations. The rats were treated with Ionis modified oligonucleotides from the studies described in the Examples above and evaluated for changes in the levels of various plasma chemistry markers.
# [15] = tested on: Yap1 mRNA; test: Dose-dependent inhibition of human Yap1 in A-431 cells (Example 8, 10,000 cells per well, RTS4814); format: cell-based; conditions: free uptake, approximately 48 hours, RTS4814; for Yap1 mRNA, % UTC: A-431 cells, 10,000 cells per well
# Method in brief: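 A-431 cells (10,000/well) dosed with modified oligonucleotides by free uptake; Yap1 mRNA measured ~48 h later with primer-probe set RTS4814, normalized to total RNA (RIBOGREEN). Values are % of untreated control; IC50 from linear regression on log/linear plot.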
# [16] = tested on: Yap1 mRNA; test: Dose-dependent inhibition of human Yap1 in SNU-449 cells (Example 9, RTS36584); format: cell-based; conditions: free uptake; for % UTC (Yap1 mRNA): approximately 48 hours
# Method in brief: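 SNU-449 cells (10,000/well) took up modified oligonucleotides by free uptake at a range of doses for about 48 h. Yap1 mRNA was quantified with primer-probe set RTS36584, normalised to RIBOGREEN total RNA and expressed as % untreated control; IC50 from linear regression on log/linear plot.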
# [17] = Tolerability in Sprague-Dawley rats, body and organ weights (Example 20); format: in vivo; conditions: male Sprague-Dawley rats, 50 mg/kg s.c. weekly for 6 weeks (7 doses)
# Procedure: Terminal body weight was measured prior to necropsy. Ionis oligonucleotides that caused any changes in organ weights outside the expected range for modified oligonucleotides were excluded from further studies.
# [18] = Tolerability in Sprague-Dawley rats, kidney function, urine total protein to creatinine ratio (Example 20); conditions: male Sprague-Dawley rats, 50 mg/kg subcutaneously weekly for 6 weeks (total 7 doses)
# Procedure: Male Sprague-Dawley rats were maintained on a 12-hour light/dark cycle and fed ad libitum with Purina normal rat chow. Groups of 4 Sprague-Dawley rats each were weekly injected subcutaneously with 50 mg/kg of Ionis oligonucleotide for 6 weeks (total 7 doses). Forty-eight hours after the last dose, the rats were euthanized; and organs, urine and plasma were harvested for further analysis.
# To evaluate the effect of Ionis oligonucleotides on kidney function, urinary levels of total protein and creatinine were measured using an automated clinical chemistry analyzer (Hitachi Olympus AU400c, Melville, N.Y.).
substance,measurement,setting,value
"ION 1198440 (AAGTGTATGTCAGAAG; cEt, 2'-MOE, 5-methylcytosine, phosphorothioate modifications, further chemistry not given here)",tumor volume,[1]; 50 mg/kg modified oligonucleotide alone,significant reduction in tumor volume
same,"tumor volume, combination with sorafenib",[1]; 50 mg/kg modified oligonucleotide plus 30 mg/kg sorafenib orally 7 times a week,further reduction in tumor volume
same,"ERK1/2 activation (pERK/ERK relative to PBS control), combination with sorafenib",[2],significant decrease in ERK1/2 activation
same,effect on hematologic parameters,[3],well tolerated
same,urine chemistry markers,[4],well tolerated
same,effect on liver function,[5],well tolerated
same,effect on body and organ weights,[6],well tolerated
same,effect on coagulation parameters,[7],well tolerated
same,inflammation (Complement C3),[8],did not cause any inflammation
958371 (antisense kA*k[5mC]*k[5mC]*dA*dA*d[5mC]*dT*dA*dT*dT*dA*d[5mC]*dT*kT*k[5mC]*kA) [compound 958371],"Yap1 mRNA, % UTC","[9]; Table 56, 15.6 nM",89 % UTC
same,"Yap1 mRNA, % UTC","[9]; Table 56, 62.5 nM",57 % UTC
same,"Yap1 mRNA, % UTC","[9]; Table 56, 4000.00 nM",11 % UTC
same,pIC50,"[9]; Table 56, A-431 cells 10,000 cells per well",7.00
same,Kidney weight,[10],0.32 g
same,Liver weight,[10],1.31 g
same,Spleen weight,[10],0.15 g
same,body weight,[10],23 g
same,ALT,[11],249 U/L
same,AST,[11],199 U/L
same,BUN,[11],30 mg/dL
same,TBIL,[11],0.24 mg/dL
1076481 (k[5mC]*kT*kA*dA*dG*dT*dA*dA*dG*dG*dT*dT*dT*k[5mC]*k[5mC]*k[5mC]) [compound 1076481],ALT,[12],71 U/L
same,AST,[12],121 U/L
same,BUN,[12],23 mg/dL
same,TBIL,[12],0.23 mg/dL
same,Kidney weight,[13],0.57 g
same,Liver weight,[13],2.06 g
same,Spleen weight,[13],0.23 g
same,body weight,[13],39 g
same,ALB,[14],2.74 g/dL
same,ALT,[14],50 U/L
same,AST,[14],91 U/L
same,BUN,[14],49 mg/dL
same,TBIL,[14],0.13 mg/dL
same,"Yap1 mRNA, % UTC",[15]; 31.3 nM,21 % UTC
same,"Yap1 mRNA, % UTC",[15]; 125.0 nM,4 % UTC
same,"Yap1 mRNA, % UTC",[15]; 500.0 nM,2 % UTC
same,"Yap1 mRNA, % UTC",[15]; 2000.00 nM,3 % UTC
same,pIC50,"[15]; A-431 cells, linear regression on log/linear plot",> 7.70
same,% UTC (Yap1 mRNA),[16]; 31.3 nM,86 % UTC
same,% UTC (Yap1 mRNA),[16]; 125.0 nM,40 % UTC
same,% UTC (Yap1 mRNA),[16]; 500.0 nM,15 % UTC
same,% UTC (Yap1 mRNA),[16]; 2000.00 nM,3 % UTC
same,pIC50,[16]; linear regression on a log/linear plot,7.00
same,Kidney weight,[17]; end of study,2.6 g
same,Liver weight,[17]; end of study,14 g
same,Spleen weight,[17]; end of study,2.1 g
same,body weight,"[17]; terminal, prior to necropsy",367 g
same,URINE P/C ratio (total protein to creatinine ratio),[18],5
